# From US20180289692A1, “TLR MODULATORS AND METHODS OF USE” (CELGENE CORPORATION, priority 2015, published 2018)
# Where two headings read alike, the source gives them in different places. Oligonucleotides are written 5' to 3', each unit as a sugar letter and its base; * is a phosphorothioate linkage, no mark a phosphodiester; rarer units and linkages stand in square brackets, end groups in braces. Plain capitals give the bases only. d = 2'-deoxy (DNA)
# Legend:
# [1] = tested on: SMAD7 protein; test: SMAD7 protein levels in human pDCs by FACS; format: cell-based; conditions: 24 hrs or 48 h, any indicated concentration, no transfection
# Experimental: PBMC from healthy donors were isolated from Buffy Coat blood (Blood Center of NY) by density-gradient centrifugation over Ficoll-Hypaque (Pharmacia Biotech). The cells were washed with PBS and re-suspended in RPMI-1640 Media with 10% inactivated fetal bovine serum, penicillin (100 U/ml) and streptomycin (100 μg/ml) and 2 mM L-glutamine (complete medium, Life Technologies). PBMC were treated with ODNs for indicated time periods at indicated concentrations, generally between 0.0001 μM and 10 μM, with CD40L plus anti-HisTag antibody, or with a vehicle control (endotoxin-free sterile water control). No transfection reagent was added with the ODNs.
# SMAD7 protein levels were determined using standard FACS protocols. PBMCs were incubated on ice in the presence of Fc-Block (BD Pharmingen) for 20 minutes, washed, and incubated with antibodies specific for surface molecules or isotype-matched control mAbs. PECY-7-labeled anti-human CCR6 mAb, and PerCP-Cy5.5 labeled anti-human CD123 mAb were purchased from BD Biosciences. SMAD7 antibody was purchased from Biorbyt, Cambridge, UK. The stained cells were then subjected to FACS (FACSCanto, BD Biosciences) using the FACSDiva software. FACS analysis was performed using FlowJo software. Single, viable cells in the CCR6+CD123+ pDC gates were used for analysis of, e.g., SMAD7 protein levels.
# [2] = tested on: canonical NF-κB promoter reporter; test: Mouse Raw Blue Reporter Cells, SEAP reporter driven by canonical NF-κB promoter (FIG. 11); format: cell-based; conditions: mouse macrophages, 24 hrs
# Experimental: Mouse Raw Blue Reporter Cells (Invivogen), containing a secreted embryonic alkaline phosphatase (SEAP) reporter gene driven by canonical NF-κB promoter, were plated in 96-well plates at 50,000 cells/well in DMEM Media supplemented with 10% FBS, 2 mM L-glutamine, 1% Pen/Strep, […] Normacin. […] The supernatant was harvested and tested for SEAP production by measuring OD at 630 nm.
# [3] = tested on: human pDCs; test: Intracellular IL-10, TGF-β1 and IDO expression in CCR6+CD123+ human pDCs by FACS; format: cell-based; conditions: 24 hrs, FIG. 2A
# Description: To evaluate intracellular IL-10, TGFβ 1 and IDO expression in human pDCs, the cells were first stained with PECY-7-labeled anti-human CCR6 mAb (BD Biosciences), PerCP-Cy5.5 labeled anti-human CD123 mAb (BD Biosciences). Stained cells were then fixed and permeabilized using a Cytofix/Cytoperm kit (BD Biosciences) according to the manufacturer's instructions and stained with PE-labeled anti-human IDO (Biolegend), APC-labeled anti-human IL-10 mAb and FITC-labeled anti-human TGF-β1 (BD Biosciences), or isotype-matched control mAbs. The stained cells were acquired by FACSCanto using the FACSDiva software. FACS analysis was performed using FlowJo software. Single, viable cells in the CCR6+CD123+ pDC gates were analyzed. The flow cytometric results are expressed as the percentage and MFI of IL-10-, TGF-β1- or IDO-expressing cells in each gate. Results are expressed as the mean±SEM of cells quantified.
# IL10 was alternatively measured in cellular supernatants by ELISA using standard protocols.
# [4] = tested on: canonical NF-κB promoter reporter; test: Canonical NF-κB promoter reporter construct in RAW264.7 macrophage cells (FIG. 10); format: cell-based, mouse; conditions: 24 hrs
# Experimental: Mouse RAW264.7 macrophage cells containing a reporter construct driven by a canonical NF-κB promoter were plated in 96-well plates at 50,000 cells/well. […] The supernatant was harvested and tested for optical density.
# [5] = biological target: T1, TLR7 (Homo sapiens, UniProt Q9NYK1); test: Inhibition of TLR7 (imiquimod)-induced IFNα and IP10 (CXCL10) in PBMCs; format: cell-based
# T1 construct: endogenous in cells; host or cells: human PBMCs from healthy donors
# T1 sequence (Q9NYK1 27-1049): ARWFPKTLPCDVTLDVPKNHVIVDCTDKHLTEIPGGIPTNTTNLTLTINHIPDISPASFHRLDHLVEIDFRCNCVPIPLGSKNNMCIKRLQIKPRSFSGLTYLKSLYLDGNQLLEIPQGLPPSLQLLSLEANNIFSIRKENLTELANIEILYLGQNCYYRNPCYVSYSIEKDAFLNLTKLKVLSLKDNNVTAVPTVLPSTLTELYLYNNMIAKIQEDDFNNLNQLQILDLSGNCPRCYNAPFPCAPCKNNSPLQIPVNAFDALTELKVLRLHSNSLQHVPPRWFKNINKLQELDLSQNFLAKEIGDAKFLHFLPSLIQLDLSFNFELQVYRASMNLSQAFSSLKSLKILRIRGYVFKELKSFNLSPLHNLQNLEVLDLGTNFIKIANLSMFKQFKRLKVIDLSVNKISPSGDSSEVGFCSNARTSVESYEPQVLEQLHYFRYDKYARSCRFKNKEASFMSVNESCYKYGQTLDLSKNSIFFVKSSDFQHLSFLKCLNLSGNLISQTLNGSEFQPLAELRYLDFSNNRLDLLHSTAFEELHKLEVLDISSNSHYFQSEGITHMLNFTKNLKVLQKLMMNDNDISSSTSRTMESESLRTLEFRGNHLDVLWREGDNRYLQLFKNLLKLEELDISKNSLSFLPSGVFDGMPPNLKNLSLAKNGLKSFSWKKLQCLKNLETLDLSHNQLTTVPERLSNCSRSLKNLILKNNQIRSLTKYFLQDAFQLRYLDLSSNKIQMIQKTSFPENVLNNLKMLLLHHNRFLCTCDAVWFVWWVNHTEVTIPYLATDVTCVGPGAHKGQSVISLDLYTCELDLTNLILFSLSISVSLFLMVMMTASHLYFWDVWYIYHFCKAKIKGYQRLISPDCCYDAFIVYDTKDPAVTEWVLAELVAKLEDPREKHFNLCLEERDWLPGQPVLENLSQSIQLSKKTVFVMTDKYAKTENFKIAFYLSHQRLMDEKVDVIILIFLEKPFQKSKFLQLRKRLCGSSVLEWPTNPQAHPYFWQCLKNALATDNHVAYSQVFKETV
# Experimental: After 24 hours, the supernatant was harvested and tested for IFNα using MagPix Multi-Plex technology.
substance,measurement,setting,value
"ODN150: 5′-G*G*A*ACAGTTCGTCCAT*G*G*C-3′, PO except * = PS; antisense to p65 of NF-kB mRNA; tested clinically for ulcerative colitis (DNA dG*dG*dA*dAdCdAdGdTdTdCdGdTdCdCdAdT*dG*dG*dC)",effect on SMAD7 protein levels,[1],do not affect
same,concentration from which the NF-κB reporter is activated,[2],10 µM
same,activation of canonical NF-κB reporter,"[2]; SEAP, COMPOUND (I) up to 10 μM",activate
same,TGF-β1 protein induction,[3],can induce
same,activation of the NF-κB construct,[4]; 0.1-100 μM,Moderate activation
same,ODN concentration at which activation of the NF-κB construct was observed,[4],100 µM
same,IC50,"[5]; Imiquimod 5 μg/ml 24 hours, FIGS. 8B, 9A, read-out: IC50, TLR7-mediated IFNα induction",> 10 µM
same,IC50,"[5]; imiquimod, FIG. 9B, read-out: IC50, TLR7-mediated IP10 (CXCL10) induction",> 10 µM
